From ChEMBL document CHEMBL1649565, “Besifloxacin, a novel fluoroquinolone, has broad-spectrum in vitro activity against aerobic and anaerobic bacteria” (Antimicrob Agents Chemother, 2009)
Converted amounts (≈) assume the structure as drawn. The source made the active and inactive calls. The calls are words filed in the database; no cut-off is given here.

Experiments:
[1] = Drug concentration in human tears at 0.6% administered topically as single dose measured after 24 hrs; format: ADME; conditions: topical or ocular, read-out: Drug uptake
[2] = test system: Prevotella sp.; test: Antibacterial activity against Prevotella sp. assessed as percent susceptible isolates by CLSI M11-A7 method; format: functional
[3] = test system: Prevotella sp.; test: Antibacterial activity against Prevotella sp. by CLSI M11-A7 method; format: functional
[4] = test system: Peptostreptococcus sp.; test: Antibacterial activity against Peptostreptococcus sp. by CLSI M11-A7 method; format: functional
[5] = Drug concentration in human tears at 0.6% administered topically as single dose measured after 10 mins; format: ADME; conditions: topical or ocular, read-out: Drug uptake
[6] = test system: Cutibacterium acnes; test: Antibacterial activity against Propionibacterium acnes assessed as percent susceptible isolates by CLSI M11-A7 method; format: functional
[7] = test system: Fusobacterium sp.; test: Antibacterial activity against Fusobacterium sp. by CLSI M11-A7 method; format: functional
[8] = test system: Fusobacterium sp.; test: Antibacterial activity against Fusobacterium sp. assessed as percent susceptible isolates by CLSI M11-A7 method; format: functional
[9] = test system: Peptostreptococcus sp.; test: Antibacterial activity against Peptostreptococcus sp. assessed as percent susceptible isolates by CLSI M11-A7 method; format: functional
[10] = test system: Bacteroides fragilis; test: Antibacterial activity against Bacteroides fragilis assessed as percent susceptible isolates by CLSI M11-A7 method; format: functional
[11] = test system: Streptococcus sp.; test: Antibacterial activity against Lancefield Streptococcus sp. group F assessed as percent susceptible isolates by CLSI M100-S18 method; format: functional
[12] = Antibacterial activity against Lancefield Streptococcus sp. 'group C' assessed as percent susceptible isolates by CLSI M100-S18 method; format: functional
[13] = test system: Streptococcus agalactiae; test: Antibacterial activity against Streptococcus agalactiae assessed as percent susceptible isolates by CLSI M100-S18 method; format: functional
[14] = test system: Enterococcus faecium; test: Antibacterial activity against vancomycin- resistant Enterococcus faecium assessed as percent susceptible isolates by CLSI M100-S18 method; format: functional
[15] = test system: Klebsiella oxytoca; test: Antibacterial activity against Klebsiella oxytoca assessed as percent susceptible isolates by CLSI M7-A7 method; format: functional
[16] = test system: Morganella morganii; test: Antibacterial activity against Morganella morganii assessed as percent susceptible isolates by CLSI M7-A7 method; format: functional
[17] = test system: Citrobacter koseri; test: Antibacterial activity against Citrobacter koseri assessed as percent susceptible isolates by CLSI M7-A7 method; format: functional

For `N[C@@H]1CCCCN(c2c(F)cc3c(=O)c(C(=O)O)cn(C4CC4)c3c2Cl)C1` [BESIFLOXACIN], the concentration at 24 h [1] was 1.6 µg/mL, the Activity [2] was “inactive” and the MIC50 [3] was 1 µg/mL (≈ 2.54 µM). It also gave an MIC90 [3] of 4 µg/mL (≈ 10.2 µM), an MIC50 [4] of 0.25 µg/mL (≈ 0.635 µM) and an MIC90 [4] of 0.5 µg/mL (≈ 1.27 µM). For the same compound, the concentration at 10 min [5] was 610 µg/mL, the Activity [6] was “inactive” and the MIC50 [7] was 0.25 µg/mL (≈ 0.635 µM). The MIC90 [7] was 1 µg/mL (≈ 2.54 µM), the Activity [8] was “inactive” and the Activity [9] was “inactive”. The Activity [10] was “inactive”.
For `NC[C@H]1O[C@H](O[C@H]2[C@H](O)[C@@H](O[C@H]3O[C@H](CO)[C@@H](O)[C@H](N)[C@H]3O)[C@H](N)C[C@@H]2N)[C@H](N)C[C@@H]1O` [TOBRAMYCIN], the Activity [11] was 74%, the Activity [12] was 74% and the Activity [13] was 73%.
In the case of `C[C@H]1COc2c(N3CCN(C)CC3)c(F)cc3c(=O)c(C(=O)O)cn1c23.C[C@H]1COc2c(N3CCN(C)CC3)c(F)cc3c(=O)c(C(=O)O)cn1c23.O` [LEVOFLOXACIN], the Activity [14] is reported as 30.9%, the Activity [15] is reported as 90% and the Activity [16] is reported as 76.5%. It also gave an Activity [17] of 99%.
